Measured values taken from paper PMC11286609, “In vitro and in vivo analyses of eFAP: a novel FAP-targeting small molecule for radionuclide theranostics and other oncological interventions” (EJNMMI Radiopharmacy and Chemistry, 2024).

Experiments:
[1] = molecular target: T1, dipeptidyl peptidase IV (DPP4) (Homo sapiens, UniProt P27487); experiment: Enzymatic inhibition assay, DPP4; type: biochemical; conditions: recombinant DPP4, n = 3; picture: nM ± 95% CI
T1 construct: purchased Abcam
Method: All experiments were performed in triplicate and repeated at least three times.

[2] = LogD7.4 shake-flask method (n-octanol/PBS); type: physicochemical; conditions: n-octanol/PBS (1:1 v/v); n-octanol/PBS pH 7.4, shake-flask
Method: The distribution coefficients (LogD7.4) were determined using a shake-flask method, in which 2 µL (~ 0.5 MBq) of [^111In]In-eFAP-6 or 10 µL of eFAP-7 (10^− 4 M) was added to an Eppendorf tube containing 1 mL of PBS (0.01 M, pH 7.4) and n-octanol (v/v, 1:1). After vigorous vortexing, the solution was centrifuged at 2500× g for 15 min for phase separation. For radiolabeled eFAP-6, samples (3 × 10 µL) of the octanol and aqueous phases were taken out and measured in a 1480 Wizard automatic γ-counter (PerkinElmer; Groningen, The Netherlands). LogD7.4 values were calculated by using the following equation: LogD7.4 = log [(counts in octanol phase)/(counts in aqueous phase)]. For eFAP-7, samples (50 µL) of the octanol and aqueous phases were taken out and measured by LC-MS. LogD7.4 values were calculated by using the following equation: LogD7.4 = log [(area in octanol phase)/(area in aqueous phase)].

HT1080-huFAP cells = experiment: Confocal microscopy of fluorescent tracer uptake, HT1080-huFAP; type: cell-based, human
Method: (§1) Cell experiments were performed with the human sarcoma HT1080 cell line, stably transduced with human FAP (HT1080-huFAP) which were kindly provided by Prof. Dr. Uwe Haberkorn from the University of Heidelberg. The wild type HT1080 (ATTC), hereafter HT080-WT, was used as a negative control. Additionally, the pancreatic stellate cells PS-1, obtained from Queen Mary University, were used as an endogenously FAP expressing cell line. HT1080-huFAP and HT1080-WT cells were cultured in DMEM Glutamax© (Gibco; Breda, The Netherlands) and the PS-1 cells were cultured in RPMI (Gibco). Both media were supplemented with 10% FBS (Gibco), 100 UI/mL penicillin, and 100 µg/mL streptomycin (Merck Life Science NV; Amsterdam, The Netherlands). All cell lines were regularly passaged at 80% confluence and cultured at 37 °C, 5% CO2.
(§2) Fluorescent tracer uptake was analyzed on HT1080-huFAP, HT1080-WT, and PS-1 cells. One day prior to the assay 280,000 HT1080-huFAP, 300,000 HT1080-WT, and 460,000 PS-1 cells were seeded on […] coverslips in a 6-well plate. […] Cells incubated only in medium were taken along to correct for auto-fluorescence. […] Analyses were performed in Fiji (Schindelin et al. [2012]) and were subjected to a custom-made macro to correct for auto-fluorescence signal. […]

[3] = Stability in PBS at 37 °C (radio-HPLC / LC-MS); type: physicochemical; conditions: % intact labeled ligand, 37 °C
Method: (§3) For the stability assessment of eFAP-6, [^111In]In-eFAP-6 or [^177Lu]Lu-eFAP-6 (~ 3–7 MBq, 20 µL) was mixed with 180 µL of PBS (0.01 M, pH 7.4) and incubated at 37 °C for up to 24 h. A sample of the PBS solution was directly injected on the radio-HPLC at 1, 4, and 24 h after incubation. Additionally, [^111In]In-eFAP-6 and [^177Lu]Lu-eFAP-6 (5–15 MBq, 50 µL) were incubated with 350 µL of commercially acquired mouse or human serum (Biolegend; San Diego, CA, USA) at 37 °C for up to 24 h. Following 1, 4, and 24 h of incubation, 50 µL of the solution were mixed with 50 µL of acetonitrile in an Eppendorf tube, and centrifuged at 5000× g for 20 min. The supernatant was then analyzed by radio-HPLC. Stability studies of eFAP-7 were performed by incubation of eFAP-7 (50 µL, 10^− 4 M) in 450 µL PBS or serum at 37 °C for up to 24 h. After 1, 4, and 24 h of incubation, 50 µL of the PBS incubation solution were directly analyzed by liquid chromatography-mass spectrometry (LC-MS), while 50 µL of the serum solution was mixed with 50 µL of acetonitrile in an Eppendorf tube, and centrifuged at 5000× g for 20 min, followed by LC-MS analyses.

[4] = Stability in human serum at 37 °C (radio-HPLC / LC-MS); type: in vitro ADME; conditions: % intact labeled ligand, human serum, 37 °C
Method: as §3

PS-1 cells = experiment: Confocal microscopy of fluorescent tracer uptake, PS-1; type: cell-based
Method: as §1, §2

HT1080-WT cells = experiment: Confocal microscopy of fluorescent tracer uptake, HT1080-WT; type: cell-based, human; conditions: HT1080-WT (FAP-negative control), 1 nM
Method: as §1, §2

[5] = Stability in mouse serum at 37 °C (radio-HPLC / LC-MS); type: in vitro ADME; conditions: % intact labeled ligand, mouse serum, 37 °C
Method: as §3

T1 sequence (P27487 whole entry, species assumed): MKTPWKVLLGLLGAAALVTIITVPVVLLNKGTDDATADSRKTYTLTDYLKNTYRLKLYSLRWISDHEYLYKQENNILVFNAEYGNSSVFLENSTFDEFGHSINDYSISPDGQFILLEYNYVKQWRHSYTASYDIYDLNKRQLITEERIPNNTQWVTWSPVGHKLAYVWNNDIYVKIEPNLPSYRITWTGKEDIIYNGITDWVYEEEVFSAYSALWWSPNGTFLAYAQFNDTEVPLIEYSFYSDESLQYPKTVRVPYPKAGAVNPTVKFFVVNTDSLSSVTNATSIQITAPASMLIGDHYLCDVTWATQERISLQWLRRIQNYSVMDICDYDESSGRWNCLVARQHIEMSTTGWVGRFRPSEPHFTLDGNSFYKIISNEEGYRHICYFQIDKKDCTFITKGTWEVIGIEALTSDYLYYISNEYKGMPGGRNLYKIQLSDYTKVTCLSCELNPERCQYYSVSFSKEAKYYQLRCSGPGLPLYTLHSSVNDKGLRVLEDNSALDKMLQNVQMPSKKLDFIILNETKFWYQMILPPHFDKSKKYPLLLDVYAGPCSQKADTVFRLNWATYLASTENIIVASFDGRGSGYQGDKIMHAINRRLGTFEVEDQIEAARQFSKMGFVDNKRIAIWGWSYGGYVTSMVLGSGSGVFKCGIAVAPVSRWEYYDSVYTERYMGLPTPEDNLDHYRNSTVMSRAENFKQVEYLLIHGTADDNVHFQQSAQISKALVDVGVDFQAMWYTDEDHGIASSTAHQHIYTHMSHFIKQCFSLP

SMILES | IC50 [1] | logD [2] | sCy5 signal with an excess of UAMC-1110 (HT1080-huFAP cells; 1 nM tracer + 1 mM UAMC-1110) | sCy5 signal (uptake) in cells (HT1080-huFAP cells; 1 nM, 15 and 45 min of incubation) | Stability (% ± SD) PBS 1 h ([3]; 1 h) | Stability (% ± SD) PBS 4 h ([3]; 4 h) | Stability (% ± SD) PBS 24 h ([3]; 24 h) | Stability (% ± SD) Human serum 1 h ([4]; 1 h) | Stability (% ± SD) Human serum 4 h ([4]; 4 h) | Stability (% ± SD) Human serum 24 h ([4]; 24 h) | sCy5 signal with an excess of UAMC-1110 (PS-1 cells; PS-1, 1 nM tracer + 1 mM UAMC-1110) | uptake in PS-1 cells relative to HT1080-huFAP (PS-1 cells; PS-1, 1 nM, 15 and 45 min) | uptake in HT1080-WT cells (HT1080-WT cells) | Stability (% ± SD) Mouse serum 1 h ([5]; 1 h) | Stability (% ± SD) Mouse serum 4 h ([5]; 4 h) | Stability (% ± SD) Mouse serum 24 h ([5]; 24 h)
N#C[C@@H]1CC(F)(F)CN1C(=O)CNC(=O)c1ccnc2c(OCCCNC(=O)CN3CCN(CC(=O)O)CCN(CC(=O)O)CCN(CC(=O)O)CC3)cccc12 [eFAP-6, (S)-2,2',2''-(10-(2-((3-((4-((2-(2-cyano-4,4-difluoropyrrolidin-1-yl)-2-oxoethyl)carbamoyl)quinolin-8-yl)oxy)propyl)amino)-2-oxoethyl)-1,4,7,10-tetraazacyclododecane-1,4,7-triyl)triacetic acid] | 58600 ± 11400 nM |  |  |  |  |  |  |  |  |  |  |  |  |  |  | 
CN1/C(=C/C=C/C=C/C2=[N+](CCCCCC(=O)NCCCOc3cccc4c(C(=O)NCC(=O)N5CC(F)(F)C[C@H]5C#N)ccnc34)c3ccc(S(=O)(=O)[O-])cc3C2(C)C)C(C)(C)c2cc(S(=O)(=O)O)ccc21 [eFAP-7, 1-(6-((3-((4-((2-((S)-2-cyano-4,4-difluoropyrrolidin-1-yl)-2-oxoethyl)carbamoyl)quinolin-8-yl)oxy)propyl)amino)-6-oxohexyl)-3,3-dimethyl-5-sulfo-2-((1E,3E)-5-((E)-1,3,3-trimethyl-5-sulfoindolin-2-ylidene)penta-1,3-dien-1-yl)-3H-indol-1-ium] | 612000 ± 42700 nM | -0.94 ± 0.26 | almost no visible signal | a clear signal was visible | 99.5 ± 0.5% | 99.2 ± 0.7% | 99.1 ± 0.1% | 87.6 ± 0.9% | 87.9 ± 2.3% | 85.5 ± 2.1% | almost no visible signal | visibly lower than for HT1080-huFAP | no uptake was observed | 85.0 ± 3.3% | 83.2 ± 4.1% | 76.2 ± 7.1%
